# From patent US8178552B2, “7-Azaindole derivatives and their use in the inhibition of c-Jun N-terminal kinase” (Eisai R&D Management Co., Ltd., priority 2008, dated 2012)
# Molecular target: JNK3 (Homo sapiens, UniProt P53779)
# Assay: JNK3 SPA assay
# Format: biochemical
# Settings: 3.33 μM ATP, GST-c-Jun substrate; read-out: IC50 against JNK3
# Description: JNK1, JNK2, JNK3—SPA Assay
# JNK1, JNK2, JNK3—SPA Assay • 1. Compound is dissolved in DMSO to a convenient concentration and this is diluted in 10% DMSO to a five times concentrate of the desired starting concentration (frequently 1:100). • 2. 10 μl of 500 mM EDTA is added to alternative wells of the Opti-plate row, which will receive kinase reaction plus DMSO. This creates the negative control. • 3. For the JNK2 and JNK3 assay, compounds are prepared in six 2-fold dilutions with water and each concentration is tested in duplicate. For the JNK1 assay compounds are prepared in four 5-fold dilutions with water which are tested in triplicate. Controls are treated identically. • 4. 20 μl per well of each compound concentration is transferred to an Opti-plate, in duplicate. • 5. 30 μl (JNK2/3 SPA) or 50 μl (JNK1 SPA) of substrate solution (25 mM HEPES pH 7.5, 10 mM magnesium acetate with 3.33 μM ATP (JNK2/3) or 2 μM ATP (JNK1), approximately 7.5 kBq [γ-^33P] ATP, GST-c-Jun, in water) is added to each well. • 6. 50 μl (JNK2/3 SPA) or 30 μl (JNK1 SPA) of kinase solution (JNK in 25 mM HEPES pH 7.5, 10 mM Mg Acetate) is added to each well.
# • 7. The plate is incubated for 30 minutes at room temperature. • 8. 100 μl of bead/stop solution is added to each well (5 mg/ml glutathione-PVT-SPA beads, 40 mM ATP in PBS). • 9. Plates are sealed and incubated for 30 minutes at room temperature, centrifuged for 10 minutes at 2500 g and counted. • 10. The IC50 values are calculated as the concentration of the compound being tested at which the phosphorylation of c-Jun is decreased to 50% of the control value.
# JNK3, sequence (P53779 whole entry, species assumed): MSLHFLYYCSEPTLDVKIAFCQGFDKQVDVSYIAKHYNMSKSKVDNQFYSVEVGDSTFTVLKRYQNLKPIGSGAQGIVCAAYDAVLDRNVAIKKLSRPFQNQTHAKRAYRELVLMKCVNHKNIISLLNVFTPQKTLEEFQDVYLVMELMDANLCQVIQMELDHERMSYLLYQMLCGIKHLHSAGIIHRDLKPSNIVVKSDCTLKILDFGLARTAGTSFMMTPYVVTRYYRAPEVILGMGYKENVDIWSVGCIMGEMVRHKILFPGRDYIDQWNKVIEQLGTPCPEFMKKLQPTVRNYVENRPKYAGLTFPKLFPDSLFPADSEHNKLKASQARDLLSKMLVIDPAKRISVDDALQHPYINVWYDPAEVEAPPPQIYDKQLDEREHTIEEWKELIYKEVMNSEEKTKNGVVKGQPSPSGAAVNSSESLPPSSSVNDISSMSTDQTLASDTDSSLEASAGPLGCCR
row,IC50 [nM],Compound
1,288,"CCOCCN(CC)[C@H]1CC[C@H](c2cnc3[nH]cc(-c4cnn(C)c4)c3c2)CC1 [Compound I-107, (1r,4r)-N-(2-ethoxyethyl)-N-ethyl-4-(3-(1-methyl-1H-pyrazol-4-yl)-1H-pyrrolo[2,3-b]pyridin-5-yl)cyclohexanamine]"
2,219,"Cn1cc(-c2c[nH]c3ncc(C4=C[C@H]5O[C@@H]4C[C@@H]5C#N)cc23)cn1 [I-155 exo, (1R,2R,4R)-5-(3-(1-methyl-1H-pyrazol-4-yl)-1H-pyrrolo[2,3-b]pyridin-5-yl)-7-oxabicyclo[2.2.1]hept-5-ene-2-carbonitrile]"
3,2140,"Cn1cc(-c2c[nH]c3ncc(C4CC(C)(C)CC(C)(C)C4)cc23)cn1 [Compound I-34, 3-(1-methyl-1H-pyrazol-4-yl)-5-(3,3,5,5-tetramethylcyclohexyl)-1H-pyrrolo[2,3-b]pyridine]"
4,162,"Cn1cc(-c2c[nH]c3ncc(C4CCCCCC4)cc23)cn1 [Compound I-17, 5-cycloheptyl-3-(1-methyl-1H-pyrazol-4-yl)-1H-pyrrolo[2,3-b]pyridine]"
5,347,"CN[C@@H]1C[C@H]2C=C(c3cnc4[nH]cc(-c5cnn(C)c5)c4c3)C[C@H](C2)C1 (relative stereo) [Compound I-151, trans N-methyl-7-(3-(1-methyl-1H-pyrazol-4-yl)-1H-pyrrolo[2,3-b]pyridin-5-yl)bicyclo[3.3.1]non-6-en-3-amine]"
6,148,"FC(F)n1cc(-c2c[nH]c3ncc([C@H]4CC[C@H](N5CCOCC5)CC4)cc23)cn1 [Compound I-80, 4-((1r,4r)-4-(3-(1-(difluoromethyl)-1H-pyrazol-4-yl)-1H-pyrrolo[2,3-b]pyridin-5-yl)cyclohexyl)morpholine]"
7,295,"Cn1cc(-c2c[nH]c3ncc([C@@H]4C[C@H]5O[C@@H]4CC5C#N)cc23)cn1 (stereo partly drawn) [Compound I-157, (1R,4R,5S)-5-(3-(1-methyl-1H-pyrazol-4-yl)-1H-pyrrolo[2,3-b]pyridin-5-yl)-7-oxabicyclo[2.2.1]heptane-2-carbonitrile]"
8,323,"CCN(CCOC)[C@H]1CC[C@H](c2cnc3[nH]cc(-c4cnn(C)c4)c3c2)CC1 [Compound I-123, (1r,4r)-N-ethyl-N-(2-methoxyethyl)-4-(3-(1-methyl-1H-pyrazol-4-yl)-1H-pyrrolo[2,3-b]pyridin-5-yl)cyclohexanamine]"
9,794,"Cn1cc(-c2c[nH]c3ncc([C@H]4CC[C@@H](NC5CCOCC5)CC4)cc23)cn1 [Compound I-128, N-((1s,4s)-4-(3-(1-methyl-1H-pyrazol-4-yl)-1H-pyrrolo[2,3-b]pyridin-5-yl)cyclohexyl)tetrahydro-2H-pyran-4-amine]"
10,40,"CN(C)C1CCC(c2cnc3[nH]cc(-c4cnn(C)c4)c3c2)CC1 (stereo not shown) [Compound I-9, N,N-dimethyl-4-(3-(1-methyl-1H-pyrazol-4-yl)-1H-pyrrolo[2,3-b]pyridin-5-yl)cyclohexanamine]"
11,166,"Cn1cc(-c2c[nH]c3ncc([C@H]4CC[C@H](N5CCCCC5)CC4)cc23)cn1 [Compound I-45, 3-(1-methyl-1H-pyrazol-4-yl)-5-((1r,4r)-4-(piperidin-1-yl)cyclohexyl)-1H-pyrrolo[2,3-b]pyridine]"
12,126,"Cn1cc(-c2c[nH]c3ncc(C4=CCCCCC4)cc23)cn1 [Compound I-13, (E)-5-cycloheptenyl-3-(1-methyl-1H-pyrazol-4-yl)-1H-pyrrolo[2,3-b]pyridine]"
13,98,"CN1CCCN([C@H]2CC[C@@H](c3cnc4[nH]cc(-c5cnn(C)c5)c4c3)CC2)CC1 [Compound I-38, 5-((1s,4s)-4-(4-methyl-1,4-diazepan-1-yl)cyclohexyl)-3-(1-methyl-1H-pyrazol-4-yl)-1H-pyrrolo[2,3-b]pyridine]"
14,18,"CC1CC=C(c2cnc3[nH]cc(-c4cnn(C)c4)c3c2)CC1 (stereo not shown) [Compound I-1, 3-(1-methyl-1H-pyrazol-4-yl)-5-(4-methylcyclohex-1-enyl)-1H-pyrrolo[2,3-b]pyridine]"
15,155,"Cn1cc(-c2c[nH]c3ncc(C4=CCC(c5ccccc5)CC4)cc23)cn1 (stereo not shown) [Compound I-27, 3-(1-methyl-1H-pyrazol-4-yl)-5-(4-phenylcyclohex-1-enyl)-1H-pyrrolo[2,3-b]pyridine]"
16,138,"C[C@H]1COCCN1[C@H]1CC[C@@H](c2cnc3[nH]cc(-c4cnn(C)c4)c3c2)CC1 [Compound I-104, (S)-3-methyl-4-((1s,4R)-4-(3-(1-methyl-1H-pyrazol-4-yl)-1H-pyrrolo[2,3-b]pyridin-5-yl)cyclohexyl)morpholine]"

# Further lines, the compound ahead of its results:
row,Compound,IC50 [nM]
1,"Cn1cc(-c2c[nH]c3ncc(C4=CC5(CC4)OCCO5)cc23)cn1 [Compound I-51, 3-(1-methyl-1H-pyrazol-4-yl)-5-(1,4-dioxaspiro[4.4]non-6-en-7-yl)-1H-pyrrolo[2,3-b]pyridine]",191
2,"Mixture of 3-(1-methyl-1H-pyrazol-4-yl)-5-(5-methylcyclohex-1-enyl)-1H-pyrrolo[2,3-b]pyridine and 3-(1-methyl-1H-pyrazol-4-yl)-5-(3-methylcyclohex-1-enyl)-1H-pyrrolo[2,3-b]pyridine [Compound I-29]",98
3,"CCCN(CC)[C@H]1CC[C@H](c2cnc3[nH]cc(-c4cnn(C)c4)c3c2)CC1 [Compound I-113, (1r,4r)-N-ethyl-4-(3-(1-methyl-1H-pyrazol-4-yl)-1H-pyrrolo[2,3-b]pyridin-5-yl)-N-propylcyclohexanamine]",316
4,"CCN(CCOC)[C@H]1CC[C@@H](c2cnc3[nH]cc(-c4cnn(C)c4)c3c2)CC1 [Compound I-124, (1s,4s)-N-ethyl-N-(2-methoxyethyl)-4-(3-(1-methyl-1H-pyrazol-4-yl)-1H-pyrrolo[2,3-b]pyridin-5-yl)cyclohexanamine]",257
5,"COC1=C(c2cnc3[nH]cc(-c4cnn(C)c4)c3c2)CCCC1 [Compound I-31, 5-(2-Methoxy-cyclohex-1-enyl)-3-(1-methyl-1H-pyrazol-4-yl)-1H-pyrrolo[2,3-b]pyridine]",480
6,"CN1C2C=C(c3cnc4[nH]cc(-c5cnn(C)c5)c4c3)CC1CC2 (stereo not shown) [Compound I-143, 3-(1-methyl-1H-pyrazol-4-yl)-5-(8-methyl-8-azabicyclo[3.2.1]oct-3-en-3-yl)-1H-pyrrolo[2,3-b]pyridine]",> 500
7,"Cn1cc(-c2c[nH]c3ncc([C@H]4CC[C@H](NCCO)CC4)cc23)cn1 [Compound I-129, 2-((1r,4r)-4-(3-(1-methyl-1H-pyrazol-4-yl)-1H-pyrrolo[2,3-b]pyridin-5-yl)cyclohexylamino)ethanol]",191
8,"CCCN(CC)[C@H]1CC[C@@H](c2cnc3[nH]cc(-c4cnn(C)c4)c3c2)CC1 [Compound I-114, (1s,4s)-N-ethyl-4-(3-(1-methyl-1H-pyrazol-4-yl)-1H-pyrrolo[2,3-b]pyridin-5-yl)-N-propylcyclohexanamine]",224
9,"Cn1cc(-c2c[nH]c3ncc(C4=C[C@H]5O[C@@H]4CC5C(N)=O)cc23)cn1 (mixture of isomers) [Compound I-156, (1R,4R)-5-(3-(1-methyl-1H-pyrazol-4-yl)-1H-pyrrolo[2,3-b]pyridin-5-yl)-7-oxabicyclo[2.2.1]hept-5-ene-2-carboxamide]",1410
10,"Cn1cc(-c2c[nH]c3ncc([C@H]4CC[C@@H](C(=O)O)CC4)cc23)cn1 [Compound I-77, (1s,4s)-4-(3-(1-methyl-1H-pyrazol-4-yl)-1H-pyrrolo[2,3-b]pyridin-5-yl)cyclohexanecarboxylic acid]",> 500
11,"Cn1cc(-c2c[nH]c3ncc(C4=CC5CC(=O)CC(C4)C5)cc23)cn1 (stereo not shown) [Compound I-145, 7-(3-(1-methyl-1H-pyrazol-4-yl)-1H-pyrrolo[2,3-b]pyridin-5-yl)bicyclo[3.3.1]non-6-en-3-one]",167
12,"C1=C(c2cnc3[nH]cc(-c4cnn(CCN5CCOCC5)c4)c3c2)CCC1 [Compound I-62, 5-Cyclopent-1-enyl-3-[1-(2-morpholin-4-yl-ethyl)-1H-pyrazol-4-yl]-1H-pyrrolo[2,3-b]pyridine]",105
13,"CN(C)[C@H]1CC[C@H](c2cnc3[nH]cc(-c4cnn(CCN5CCOCC5)c4)c3c2)CC1 [Compound I-60, (1r,4r)-N,N-dimethyl-4-(3-(1-(2-morpholinoethyl)-1H-pyrazol-4-yl)-1H-pyrrolo[2,3-b]pyridin-5-yl)cyclohexanamine]",> 500
14,"Cn1cc(-c2c[nH]c3ncc(C4=CC5CC[C@]4(C)C5(C)C)cc23)cn1 [Compound I-138, 3-(1-methyl-1H-pyrazol-4-yl)-5-((1R)-1,7,7-trimethylbicyclo[2.2.1]hept-2-en-2-yl)-1H-pyrrolo[2,3-b]pyridine]",148
15,"CCN(CCO)C1CCC(c2cnc3[nH]cc(-c4cnn(C)c4)c3c2)CC1 (mixture of isomers) [Compound I-131, 2-(ethyl(4-(3-(1-methyl-1H-pyrazol-4-yl)-1H-pyrrolo[2,3-b]pyridin-5-yl)cyclohexyl)amino)ethanol]",251
